Results from ChEMBL document CHEMBL1126426, “Nucleotidic prodrugs of anti-HIV dideoxynucleosides” (Bioorg Med Chem Lett, 1992).

How the values were obtained:
CCRF-CEM = assay: The compound was evaluated for the activity on HIV infected CEM cells.; type: functional; details: Homo sapiens, read-out: ED50 (the source's name)
[1] = The compound was evaluated for its stability in CEM extract; S - Stable; type: physicochemical; details: human
[2] = The compound was evaluated for its stability in RPMI at pH of 7.2 dose 10 x 10e-3; S - Stable; type: physicochemical; details: pH 7.2
[3] = The compound was evaluated for its stability in RPMI containing 10 % of FCS.; type: physicochemical; details: cattle, RPMI culture medium with 10% FCS
[4] = The compound was evaluated for its stability in RPMI containing 10 % of heat-inactivated FCS.; type: physicochemical; details: cattle, RPMI culture medium with 10% heat-inactivated FCS
[5] = Kinetic constant in RPMI containing 10 % of FCS.; type: ADME; details: cattle
[6] = Kinetic constant in RPMI containing 10 % of heat-inactivated FCS.; type: ADME; details: cattle

Row | EC50 (CCRF-CEM) [nM] | T1/2 [1] | T1/2 [2] | half-life [3] [h] | half-life [4] [h] | k [5] [min⁻¹] | k [6] [min⁻¹] | Structure (SMILES)
1 | 500 |  |  |  |  |  |  | COP(=O)(OCC1CCC(n2ccc(N)nc2=O)O1)OC[C@@H]1CC[C@H](n2ccc(N)nc2=O)O1 (some centres undefined)
2 | 50 | Stable | Stable | 22 | 48 | 0.00052 | 0.00024 | Nc1ccn(C2CCC(COP(=O)(O)OC[C@@H]3CC[C@H](n4ccc(N)nc4=O)O3)O2)c(=O)n1 (some centres undefined)
3 | 100 |  |  |  |  |  |  | Nc1ccn([C@H]2CC[C@@H](CO)O2)c(=O)n1 [ZALCITABINE]
